Experiments:
Test in all cases: relative viability (nuclei count vs DMSO), 5 days (fraction); higher = more cells survive
AZD8055 + Linsitinib = compound: COc1ccc(-c2ccc3c(N4CCOC[C@@H]4C)nc(N4CCOC[C@@H]4C)nc3n2)cc1CO [AZD8055] + C[C@]1(O)C[C@@H](c2nc(-c3ccc4ccc(-c5ccccc5)nc4c3)c3c(N)nccn32)C1 [Linsitinib] (partner 1 µM)
Outline: (§1)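 Lung cancer cell lines in 1536-well plates were dosed by pin tool the day after seeding, either with one drug alone or with a fixed anchor-drug dose plus five library-drug doses (not always all listed) in √10 steps. After 5 days, cells were fixed and their nuclei stained in one step (final 0.05% Triton X-100, 1% formaldehyde, 1 ug/ml Hoechst), then counted on 4× images. Relative viability is the nuclei count in treated wells divided by that in vehicle wells. Values are medians of duplicate plates.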

AZD8055 + Pemetrexed = compound: COc1ccc(-c2ccc3c(N4CCOC[C@@H]4C)nc(N4CCOC[C@@H]4C)nc3n2)cc1CO [AZD8055] + Nc1nc2[nH]cc(CCc3ccc(C(=O)N[C@@H](CCC(=O)O)C(=O)O)cc3)c2c(=O)[nH]1 [Pemetrexed] (partner 0.2 µM)
Outline: as §1

AZD8055 + Vorinostat = compound: COc1ccc(-c2ccc3c(N4CCOC[C@@H]4C)nc(N4CCOC[C@@H]4C)nc3n2)cc1CO [AZD8055] + O=C(CCCCCCC(=O)Nc1ccccc1)NO [Vorinostat] (partner 1 µM)
Outline: as §1

AZD8055 + Olaparib = compound: COc1ccc(-c2ccc3c(N4CCOC[C@@H]4C)nc(N4CCOC[C@@H]4C)nc3n2)cc1CO [AZD8055] + O=C(c1cc(Cc2n[nH]c(=O)c3ccccc23)ccc1F)N1CCN(C(=O)C2CC2)CC1 [Olaparib] (partner 8 µM)
Outline: as §1

With NCI-H322M the relative viability (AZD8055 + Linsitinib; first compound 0.01 µM) was 0.891, the relative viability (AZD8055 + Linsitinib; first compound 0.03162 µM) was 0.771 and the relative viability (AZD8055 + Linsitinib; first compound 0.1 µM) was 0.557. For the same cell line, the relative viability (AZD8055 + Linsitinib; first compound 0.3162 µM) was 0.497, the relative viability (AZD8055 + Linsitinib; first compound 1 µM) was 0.461 and the relative viability (AZD8055 + Pemetrexed; first compound 0.01 µM) was 0.655. The relative viability (AZD8055 + Pemetrexed; first compound 0.03162 µM) was 0.689, the relative viability (AZD8055 + Pemetrexed; first compound 0.1 µM) was 0.622 and the relative viability (AZD8055 + Pemetrexed; first compound 0.3162 µM) was 0.609. For the same cell line, the relative viability (AZD8055 + Pemetrexed; first compound 1 µM) was 0.483, the relative viability (AZD8055 + Vorinostat; first compound 0.01 µM) was 0.85 and the relative viability (AZD8055 + Vorinostat; first compound 0.03162 µM) was 0.839. The relative viability (AZD8055 + Vorinostat; first compound 0.1 µM) was 0.8, the relative viability (AZD8055 + Vorinostat; first compound 0.3162 µM) was 0.511 and the relative viability (AZD8055 + Vorinostat; first compound 1 µM) was 0.538. The relative viability (AZD8055 + Olaparib; first compound 0.01 µM) was 0.806, the relative viability (AZD8055 + Olaparib; first compound 0.03162 µM) was 0.847 and the relative viability (AZD8055 + Olaparib; first compound 0.1 µM) was 0.734. It also gave a relative viability (AZD8055 + Olaparib; first compound 0.3162 µM) of 0.731 and a relative viability (AZD8055 + Olaparib; first compound 1 µM) of 0.474.

NCI-H358 showed a relative viability (AZD8055 + Linsitinib; first compound 0.01 µM) of 0.728, a relative viability (AZD8055 + Linsitinib; first compound 0.03162 µM) of 0.561 and a relative viability (AZD8055 + Linsitinib; first compound 0.1 µM) of 0.429. For the same cell line, the relative viability (AZD8055 + Linsitinib; first compound 0.3162 µM) was 0.209, the relative viability (AZD8055 + Linsitinib; first compound 1 µM) was 0.236 and the relative viability (AZD8055 + Pemetrexed; first compound 0.01 µM) was 0.184. For the same cell line, the relative viability (AZD8055 + Pemetrexed; first compound 0.03162 µM) was 0.176, the relative viability (AZD8055 + Pemetrexed; first compound 0.1 µM) was 0.158 and the relative viability (AZD8055 + Pemetrexed; first compound 0.3162 µM) was 0.145. The relative viability (AZD8055 + Pemetrexed; first compound 1 µM) was 0.129, the relative viability (AZD8055 + Vorinostat; first compound 0.01 µM) was 0.775 and the relative viability (AZD8055 + Vorinostat; first compound 0.03162 µM) was 0.701. For the same cell line, the relative viability (AZD8055 + Vorinostat; first compound 0.1 µM) was 0.624, the relative viability (AZD8055 + Vorinostat; first compound 0.3162 µM) was 0.207 and the relative viability (AZD8055 + Vorinostat; first compound 1 µM) was 0.121. It also gave a relative viability (AZD8055 + Olaparib; first compound 0.01 µM) of 0.563, a relative viability (AZD8055 + Olaparib; first compound 0.03162 µM) of 0.594 and a relative viability (AZD8055 + Olaparib; first compound 0.1 µM) of 0.543. It also gave a relative viability (AZD8055 + Olaparib; first compound 0.3162 µM) of 0.202 and a relative viability (AZD8055 + Olaparib; first compound 1 µM) of 0.12.

For NCI-H441, the relative viability (AZD8055 + Linsitinib; first compound 0.01 µM) was 0.515, the relative viability (AZD8055 + Linsitinib; first compound 0.03162 µM) was 0.337 and the relative viability (AZD8055 + Linsitinib; first compound 0.1 µM) was 0.346. For the same cell line, the relative viability (AZD8055 + Linsitinib; first compound 0.3162 µM) was 0.203, the relative viability (AZD8055 + Linsitinib; first compound 1 µM) was 0.33 and the relative viability (AZD8055 + Pemetrexed; first compound 0.01 µM) was 0.273. It also gave a relative viability (AZD8055 + Pemetrexed; first compound 0.03162 µM) of 0.247, a relative viability (AZD8055 + Pemetrexed; first compound 0.1 µM) of 0.232 and a relative viability (AZD8055 + Pemetrexed; first compound 0.3162 µM) of 0.234. For the same cell line, the relative viability (AZD8055 + Pemetrexed; first compound 1 µM) was 0.205, the relative viability (AZD8055 + Vorinostat; first compound 0.01 µM) was 0.985 and the relative viability (AZD8055 + Vorinostat; first compound 0.03162 µM) was 0.72. For the same cell line, the relative viability (AZD8055 + Vorinostat; first compound 0.1 µM) was 0.534, the relative viability (AZD8055 + Vorinostat; first compound 0.3162 µM) was 0.346 and the relative viability (AZD8055 + Vorinostat; first compound 1 µM) was 0.246. The relative viability (AZD8055 + Olaparib; first compound 0.01 µM) was 0.691, the relative viability (AZD8055 + Olaparib; first compound 0.03162 µM) was 0.528 and the relative viability (AZD8055 + Olaparib; first compound 0.1 µM) was 0.359. The relative viability (AZD8055 + Olaparib; first compound 0.3162 µM) was 0.32 and the relative viability (AZD8055 + Olaparib; first compound 1 µM) was 0.249.

For NCI-H460, the relative viability (AZD8055 + Linsitinib; first compound 0.01 µM) was 0.555, the relative viability (AZD8055 + Linsitinib; first compound 0.03162 µM) was 0.213 and the relative viability (AZD8055 + Linsitinib; first compound 0.1 µM) was 0.206. It also gave a relative viability (AZD8055 + Linsitinib; first compound 0.3162 µM) of 0.0409, a relative viability (AZD8055 + Linsitinib; first compound 1 µM) of 0.0438 and a relative viability (AZD8055 + Pemetrexed; first compound 0.01 µM) of 0.0514. For the same cell line, the relative viability (AZD8055 + Pemetrexed; first compound 0.03162 µM) was 0.0565, the relative viability (AZD8055 + Pemetrexed; first compound 0.1 µM) was 0.0535 and the relative viability (AZD8055 + Pemetrexed; first compound 0.3162 µM) was 0.0755. The relative viability (AZD8055 + Pemetrexed; first compound 1 µM) was 0.0693, the relative viability (AZD8055 + Vorinostat; first compound 0.01 µM) was 1.02 and the relative viability (AZD8055 + Vorinostat; first compound 0.03162 µM) was 0.629. The relative viability (AZD8055 + Vorinostat; first compound 0.1 µM) was 0.498, the relative viability (AZD8055 + Vorinostat; first compound 0.3162 µM) was 0.0504 and the relative viability (AZD8055 + Vorinostat; first compound 1 µM) was 0.0551. For the same cell line, the relative viability (AZD8055 + Olaparib; first compound 0.01 µM) was 0.444, the relative viability (AZD8055 + Olaparib; first compound 0.03162 µM) was 0.409 and the relative viability (AZD8055 + Olaparib; first compound 0.1 µM) was 0.371. The relative viability (AZD8055 + Olaparib; first compound 0.3162 µM) was 0.254 and the relative viability (AZD8055 + Olaparib; first compound 1 µM) was 0.216.

In the case of NCI-H520, the relative viability (AZD8055 + Linsitinib; first compound 0.01 µM) is reported as 0.954, the relative viability (AZD8055 + Linsitinib; first compound 0.03162 µM) is reported as 0.504 and the relative viability (AZD8055 + Linsitinib; first compound 0.1 µM) is reported as 0.198. For the same cell line, the relative viability (AZD8055 + Linsitinib; first compound 0.3162 µM) was 0.153, the relative viability (AZD8055 + Linsitinib; first compound 1 µM) was 0.164 and the relative viability (AZD8055 + Pemetrexed; first compound 0.01 µM) was 0.636. For the same cell line, the relative viability (AZD8055 + Pemetrexed; first compound 0.03162 µM) was 0.307, the relative viability (AZD8055 + Pemetrexed; first compound 0.1 µM) was 0.245 and the relative viability (AZD8055 + Pemetrexed; first compound 0.3162 µM) was 0.182. For the same cell line, the relative viability (AZD8055 + Pemetrexed; first compound 1 µM) was 0.144, the relative viability (AZD8055 + Vorinostat; first compound 0.01 µM) was 0.621 and the relative viability (AZD8055 + Vorinostat; first compound 0.03162 µM) was 0.406. The relative viability (AZD8055 + Vorinostat; first compound 0.1 µM) was 0.242, the relative viability (AZD8055 + Vorinostat; first compound 0.3162 µM) was 0.188 and the relative viability (AZD8055 + Vorinostat; first compound 1 µM) was 0.154. For the same cell line, the relative viability (AZD8055 + Olaparib; first compound 0.01 µM) was 0.247, the relative viability (AZD8055 + Olaparib; first compound 0.03162 µM) was 0.205 and the relative viability (AZD8055 + Olaparib; first compound 0.1 µM) was 0.132. The relative viability (AZD8055 + Olaparib; first compound 0.3162 µM) was 0.137 and the relative viability (AZD8055 + Olaparib; first compound 1 µM) was 0.132.

With NCI-H596 the relative viability (AZD8055 + Linsitinib; first compound 0.01 µM) was 0.991, the relative viability (AZD8055 + Linsitinib; first compound 0.03162 µM) was 0.792 and the relative viability (AZD8055 + Linsitinib; first compound 0.1 µM) was 0.457. The relative viability (AZD8055 + Linsitinib; first compound 0.3162 µM) was 0.386, the relative viability (AZD8055 + Linsitinib; first compound 1 µM) was 0.395 and the relative viability (AZD8055 + Pemetrexed; first compound 0.01 µM) was 0.452. It also gave a relative viability (AZD8055 + Pemetrexed; first compound 0.03162 µM) of 0.456, a relative viability (AZD8055 + Pemetrexed; first compound 0.1 µM) of 0.409 and a relative viability (AZD8055 + Pemetrexed; first compound 0.3162 µM) of 0.402. The relative viability (AZD8055 + Pemetrexed; first compound 1 µM) was 0.443, the relative viability (AZD8055 + Vorinostat; first compound 0.01 µM) was 0.565 and the relative viability (AZD8055 + Vorinostat; first compound 0.03162 µM) was 0.567. The relative viability (AZD8055 + Vorinostat; first compound 0.1 µM) was 0.441, the relative viability (AZD8055 + Vorinostat; first compound 0.3162 µM) was 0.455 and the relative viability (AZD8055 + Vorinostat; first compound 1 µM) was 0.428. It also gave a relative viability (AZD8055 + Olaparib; first compound 0.01 µM) of 0.752, a relative viability (AZD8055 + Olaparib; first compound 0.03162 µM) of 0.615 and a relative viability (AZD8055 + Olaparib; first compound 0.1 µM) of 0.459. It also gave a relative viability (AZD8055 + Olaparib; first compound 0.3162 µM) of 0.452 and a relative viability (AZD8055 + Olaparib; first compound 1 µM) of 0.514.

For NCI-H647, the relative viability (AZD8055 + Linsitinib; first compound 0.01 µM) was 1.18, the relative viability (AZD8055 + Linsitinib; first compound 0.03162 µM) was 0.942 and the relative viability (AZD8055 + Linsitinib; first compound 0.1 µM) was 0.601. It also gave a relative viability (AZD8055 + Linsitinib; first compound 0.3162 µM) of 0.439, a relative viability (AZD8055 + Linsitinib; first compound 1 µM) of 0.167 and a relative viability (AZD8055 + Pemetrexed; first compound 0.01 µM) of 0.207. For the same cell line, the relative viability (AZD8055 + Pemetrexed; first compound 0.03162 µM) was 0.155, the relative viability (AZD8055 + Pemetrexed; first compound 0.1 µM) was 0.133 and the relative viability (AZD8055 + Pemetrexed; first compound 0.3162 µM) was 0.166. The relative viability (AZD8055 + Pemetrexed; first compound 1 µM) was 0.122, the relative viability (AZD8055 + Vorinostat; first compound 0.01 µM) was 0.81 and the relative viability (AZD8055 + Vorinostat; first compound 0.03162 µM) was 0.416. The relative viability (AZD8055 + Vorinostat; first compound 0.1 µM) was 0.308, the relative viability (AZD8055 + Vorinostat; first compound 0.3162 µM) was 0.152 and the relative viability (AZD8055 + Vorinostat; first compound 1 µM) was 0.114. It also gave a relative viability (AZD8055 + Olaparib; first compound 0.01 µM) of 0.7, a relative viability (AZD8055 + Olaparib; first compound 0.03162 µM) of 0.416 and a relative viability (AZD8055 + Olaparib; first compound 0.1 µM) of 0.301. The relative viability (AZD8055 + Olaparib; first compound 0.3162 µM) was 0.227 and the relative viability (AZD8055 + Olaparib; first compound 1 µM) was 0.169.

Source: the supplement of paper PMC10307832
